Article PMC12171682, “Saarvienin A—A Novel Glycopeptide with Potent Activity against Drug‐Resistant Bacteria” (Angewandte Chemie (International Ed. in English), 2025)
≈ marks a conversion by molar mass, not a printed value. Read-outs that look alike come from different tables or passages of the source.

Experiments:
[1] = test system: S. aureus Mu50 (MRSA/VISA); settings: broth microdilution, cation-adjusted Mueller-Hinton Broth II, ~4 × 10⁵ CFU/mL, 37 °C, 24 h; mean of three independent biological replicates, each in technical triplicate
E. coli K12 ΔacrB = settings: broth microdilution, cation-adjusted Mueller-Hinton Broth II, ~4 × 10⁵ CFU/mL, 37 °C, 24 h; mean of three independent biological replicates, each in technical triplicate
[2] = test system: M. tuberculosis H37Ra ATCC 25177
S. aureus HG001‐DRSA = settings: daptomycin-resistant mutant of HG001; broth microdilution, cation-adjusted Mueller-Hinton Broth II, ~4 × 10⁵ CFU/mL, 37 °C, 24 h; mean of three independent biological replicates, each in technical triplicate
[3] = test system: E. coli WO153 (AB1157, recJ asmB1, ΔtolC); settings: broth microdilution, cation-adjusted Mueller-Hinton Broth II, ~4 × 10⁵ CFU/mL, 37 °C, 24 h; mean of three independent biological replicates, each in technical triplicate
E. faecalis ATCC 29212 = settings: broth microdilution, 37 °C, 24 h
S. aureus N315 (MRSA) = settings: broth microdilution, cation-adjusted Mueller-Hinton Broth II, ~4 × 10⁵ CFU/mL, 37 °C, 24 h; mean of three independent biological replicates, each in technical triplicate
[4] = test system: E. faecalis DSM 12956 (VRE, vanB positive); settings: broth microdilution, cation-adjusted Mueller-Hinton Broth II, ~4 × 10⁵ CFU/mL, 37 °C, 24 h; mean of three independent biological replicates, each in technical triplicate
[5] = test system: vancomycin‐resistant E. faecium clinical isolates with reduced susceptibility to daptomycin (n = 26); settings: broth microdilution, MHB II, daptomycin with 50 µg/mL Ca2+, mean of two independent experiments
E. coli K12 ΔtolC = settings: broth microdilution, cation-adjusted Mueller-Hinton Broth II, 37 °C, 24 h, mean of three independent biological replicates, each in technical triplicate
[6] = test system: S. aureus DSM 11822 (MDR); settings: broth microdilution, cation-adjusted Mueller-Hinton Broth II, ~4 × 10⁵ CFU/mL, 37 °C, 24 h; mean of three independent biological replicates, each in technical triplicate
[7] = 26 VRE E. faecium clinical isolates

CN[C@H](CC(C)C)C(=O)N[C@H]1C(=O)N[C@@H](CC(N)=O)C(=O)N[C@H]2C(=O)N[C@H]3C(=O)N[C@H](C(=O)N[C@H](C(=O)O)c4cc(O)cc(O)c4-c4cc3ccc4O)[C@H](O)c3ccc(c(Cl)c3)Oc3cc2cc(c3O[C@@H]2O[C@H](CO)[C@@H](O)[C@H](O)[C@H]2O[C@H]2C[C@](C)(N)[C@H](O)[C@H](C)O2)Oc2ccc(cc2Cl)[C@H]1O [Vancomycin, vancomycin]
MIC, S. aureus Mu50 (MRSA/VISA) [1]: 8 µg/mL (≈ 5.52 µM) | MIC, E. coli K12 ΔacrB (E. coli K12 ΔacrB): >64 µg/mL | MIC, M. tuberculosis H37Ra ATCC 25177 [2]: 64 µg/mL (≈ 44.2 µM) | MIC, S. aureus HG001‐DRSA (S. aureus HG001‐DRSA): 4 µg/mL (≈ 2.76 µM) | MIC, E. coli WO153 (AB1157, recJ asmB1, ΔtolC) [3]: 32 µg/mL (≈ 22.1 µM) | MIC, E. faecalis ATCC29212 (E. faecalis ATCC 29212; cation-adjusted Mueller-Hinton Broth II, ~4 × 10⁵ CFU/mL, mean of three independent biological replicates, each in technical triplicate): 4 µg/mL (≈ 2.76 µM) | MIC, E. faecalis ATCC29212 (E. faecalis ATCC 29212; reference strain in Table S5, MHB II, daptomycin with 50 µg/mL Ca2+, mean of two independent experiments): 4 µg/mL (≈ 2.76 µM) | MIC, S. aureus N315 (MRSA) (S. aureus N315 (MRSA)): 2 µg/mL (≈ 1.38 µM) | MIC, E. faecalis DSM 12956 (VRE, vanB positive) [4]: 16 µg/mL (≈ 11 µM) | MIC50 [5, 7]: >64 µg/mL | MIC90 [5, 7]: >64 µg/mL | MIC, Enterococcus faecium isolate 1 ([5]; clinical isolate 1, 37 °C, 24 h): > 64 µg/mL | MIC, Enterococcus faecium isolate 2 ([5]; clinical isolate 2, 37 °C, 24 h): > 64 µg/mL | MIC, Enterococcus faecium isolate 3 ([5]; clinical isolate 3, 37 °C, 24 h): 64 µg/mL (≈ 44.2 µM) | MIC, Enterococcus faecium isolate 4 ([5]; clinical isolate 4, 37 °C, 24 h): > 64 µg/mL | MIC, Enterococcus faecium isolate 5 ([5]; clinical isolate 5, 37 °C, 24 h): > 64 µg/mL | MIC, Enterococcus faecium isolate 6 ([5]; clinical isolate 6, 37 °C, 24 h): > 64 µg/mL | MIC, Enterococcus faecium isolate 7 ([5]; clinical isolate 7, 37 °C, 24 h): > 64 µg/mL | MIC, Enterococcus faecium isolate 8 ([5]; clinical isolate 8, 37 °C, 24 h): > 64 µg/mL | MIC, Enterococcus faecium isolate 9 ([5]; clinical isolate 9, 37 °C, 24 h): > 64 µg/mL | MIC, Enterococcus faecium isolate 10 ([5]; clinical isolate 10, 37 °C, 24 h): > 64 µg/mL | MIC, Enterococcus faecium isolate 11 ([5]; clinical isolate 11, 37 °C, 24 h): > 64 µg/mL | MIC, Enterococcus faecium isolate 12 ([5]; clinical isolate 12, 37 °C, 24 h): > 64 µg/mL | MIC, Enterococcus faecium isolate 13 ([5]; clinical isolate 13, 37 °C, 24 h): > 64 µg/mL | MIC, Enterococcus faecium isolate 14 ([5]; clinical isolate 14, 37 °C, 24 h): > 64 µg/mL | MIC, Enterococcus faecium isolate 15 ([5]; clinical isolate 15, 37 °C, 24 h): > 64 µg/mL | MIC, Enterococcus faecium isolate 16 ([5]; clinical isolate 16, 37 °C, 24 h): > 64 µg/mL | MIC, Enterococcus faecium isolate 17 ([5]; clinical isolate 17, 37 °C, 24 h): > 64 µg/mL | MIC, Enterococcus faecium isolate 18 ([5]; clinical isolate 18, 37 °C, 24 h): > 64 µg/mL | MIC, Enterococcus faecium isolate 19 ([5]; clinical isolate 19, 37 °C, 24 h): > 64 µg/mL | MIC, Enterococcus faecium isolate 20 ([5]; clinical isolate 20, 37 °C, 24 h): > 64 µg/mL | MIC, Enterococcus faecium isolate 21 ([5]; clinical isolate 21, 37 °C, 24 h): > 64 µg/mL | MIC, Enterococcus faecium isolate 22 ([5]; clinical isolate 22, 37 °C, 24 h): > 64 µg/mL | MIC, Enterococcus faecium isolate 23 ([5]; clinical isolate 23, 37 °C, 24 h): > 64 µg/mL | MIC, Enterococcus faecium isolate 24 ([5]; clinical isolate 24, 37 °C, 24 h): > 64 µg/mL | MIC, Enterococcus faecium isolate 25 ([5]; clinical isolate 25, 37 °C, 24 h): > 64 µg/mL | MIC, Enterococcus faecium isolate 26 ([5]; clinical isolate 26, 37 °C, 24 h): > 64 µg/mL | MIC, E. coli K12 ΔtolC (tolC‐deficient) + PMBN (E. coli K12 ΔtolC; co‐incubated with sub‐lethal concentrations of polymyxin B nonapeptide (PMBN)): >64 µg/mL | MIC, E. coli K12 ΔtolC (E. coli K12 ΔtolC; without PMBN, ~4 × 10⁵ CFU/mL): >64 µg/mL | MIC, S. aureus DSM 11822 (MDR) [6]: 1 µg/mL (≈ 0.69 µM)
